Test results taken from patent publication US20110098360A1, “ADAMANTANE DERIVATIVE FOR INHIBITING TOXICITY OF AMYLOID OLIGOMER” (NANODIAMOND, INC., priority 2008, published 2011).

How the values were obtained:
[1] = test system: LTP in hippocampal CA1 region (Schaffer collateral pathway); assay: fEPSP / LTP extracellular recording in hippocampal CA1 transverse slice; parameters: species or system ICR mouse; details: 1 hour after HFS
Description: Field excitatory postsynaptic potential (fEPSP) was measured in the CA1 region (Schaffer collateral pathway) of the hippocampus of an ICR mouse using the extracellular recording technique.
Hippocampal slice for fEPSP experiment was obtained from young (4-7 weeks old) male ICR mice. The mice were anesthetized with isoflurane prior to decapitation. After quickly taking out the brain of the mouse from the skull, the brain was cooled with ice and then put in a highly concentrated sucrose solution (sucrose 201 mM, KCl 3 mM, NaH2PO4 1.25 mM, MgCl2 3 mM, CaCl2 1 mM, NaHCO3 26 mM and D-glucose 10 mM) of pH 7.3 with oxygen (95% O2 and 5% CO2) supplied thereto. After isolating the hippocampus from the brain, transverse slices were obtained by cutting with a vibratome (Ted Pella, Redding, Calif., USA) in the high-concentration sucrose solution. Before extracellular recording, the transverse slice was incubated at 30° C. in a normal artificial cerebrospinal fluid (nACSF; NaCl 126 mM, KCl 3 mM, NaH2PO4 1.25 mM, MgSO4 1.3 mM, MgSO4 1.3 mM, CaCl2 2.4 mM, NaHCO3 26 mM and D-glucose 10 mM) of […] of pH 7.3 with oxygen supplied thereto. […]
In order to induce long-term potentiation (LTP), high-frequency stimulation (HFS, 2 trains, 100 Hz, 1s duration, 15 intervals) was applied with the same strength as that of the baseline experiment. Average LTP was calculated by averaging 20 fEPSP slopes at 55 to 60 minutes after the application of the high-frequency stimulation.
Extracellular field potential was recorded using a microelectrode AC amplifier model 1800 (A-M Systems, Inc., USA). The response signal was low-pass filtered at 5 kHz, digital sampled at 10 kHz using a Digidata 1322 A/D converter, and then analyzed using pCLAMP 9.0 software (Axon Instruments). […] The difference between two means was analyzed by an unpaired Student's t-test. p<0.05 was evaluated as significant. […]

[2] = test system: Aβ1-40; assay: In vivo test in Tg-APP/PS1 mice, ELISA of insoluble Aβ1-40; parameters: species or system Tg-APPswe/PS1dE9 mouse; details: single ICV injection of TAMA (1.274 μg), 24 hours, prefrontal cortex, 7.5-month-old mice
Description: (§1) Transgenic APPswe/PS1dE9 (Tg-APP/PS1) mouse overexpressing human APP and PS1 mutations was crossbred with hybrid mouse of C57BL6 and C3H until the same genetic background as the original Tg-APP/PS1 mouse was attained. The mice were accommodated in a cage with temperature and humidity controlled and 12 hour night/day cycles (lighting began at 7 a.m.), 1 to 3 mice per cage. The mice were freely given water and feed. All the mice were handled according to the Guideline for Animal Breeding and Management of the College of Pharmacy, Ewha Womans University. […]
(§2) Quantification of Aβ by ELISA was performed according to the literature of Lee et al. (Lee et al., Neurobiol. Dis. 22, 10-24). […]
(§3) Aβ1-40 peptide and Aβ1-42 peptide concentrations were determined using […] Human β Amyloid Aβ1-40 and Aβ1-42 colorimetric sandwich ELISA kits (Signal Select™, BioSource, Camarillo, Calif., USA).
(§4) A and B respectively show the quantity of insoluble Aβ1-40 (A) and insoluble Aβ1-42 (B) in the prefrontal cortex of a 7.5-month-old Tg-APP/PS1 mouse to which TAMA was administered represented as % mol with respect to when only the vehicle was administered. […]

[3] = target: T1, (Aβ)12 (Homo sapiens, UniProt P05067); assay: CD spectrum of (Aβ)12 after treatment with adamantane derivatives; details: for change in the CD spectrum of (Aβ)12: (Aβ)12 treated with adamantane derivative, 37° C., 190-250 nm; for effect of deforming the β-turn structure (rank order): among the adamantane derivatives tested
T1 construct: purchased Biopeptide Co; host or cells: chemical synthesis; oligomerised in house (HFIP, DMSO, HEPES pH 7.4, 37 °C, 24 h)
Description: (§5) (Aβ)12 was prepared according to a known method. Specifically, synthetic Aβ1-42 peptide (Biopeptide Co.) was suspended at room temperature in 100% 1, 1, 1, 3,3,3-hexafluoro-2-propanol (HFIP). After incubation for 30 minutes, HFIP was removed by evaporating under mild nitrogen flow. Then, Aβ1-42 was suspended again in dimethyl sulfoxide (DMSO) at a concentration of 5 mM and then diluted with mM 2-[4-(2-hydroxyethyl)-1-piperazinyl]ethanesulfonic acid (HEPES; pH 7.4) to a final concentration of 110 μM. The resulting solution was incubated at 37° C. for 24 hours while stirring at 500 rpm using a micro stir bar. After centrifugation at 4000 g for 30 minutes, thus obtained 56-kDa Aβ1-42 dodecamer, i.e. (Aβ)12, was concentrated (50 kDa and 100 kDa cut-off). The presence of (Aβ)12 in the concentrated sample was identified by sodium dodecyl sulfate polyacrylamide gel electrophoresis (SDS-PAGE). Its spherical structure was confirmed by atomic force microscopy. For cell culturing experiment, a 2 μM solution of (Aβ)12 was diluted using serum-free Dulbecco's modified Eagles medium (DMEM) to a final concentration of 33 nM, which corresponds to a monomer concentration of about 400 nM.
Circular dichroism (CD) spectra are useful in determining the secondary structure of proteins in solution. CD spectrum was obtained using a Jasco-810 instrument at high-sensitivity mode (5 mdeg), with a time constant of 4 s, at a scan rate of 100 nm/min, for 30 cycles. The spectrum was obtained at 37° C. in the wavelength region from 190 nm to 250 nm.
Referring to FIG. 5, when the amyloid oligomer was treated with the adamantane derivatives, the intensity of the positive band of the oligomer at 195 nm decreased and the positive band at 205 nm shifted toward longer wavelength. This means that the adamantane derivatives induce deformation of the oligomer structure by changing the configuration of the β-sheets. […] Although a detailed structure of the deformed oligomer is not clear, the decrease of intensity at 205 nm is due to the β-turn structure.

[4] = test system: H19-7 cells; assay: FLIM of single live H19-7 cell in the presence of (Aβ)12 and adamantane derivatives; format: cell-based, rat; details: for aspect ratio of single live cell: H19-7 cell treated with beta amyloid oligomer, FIG. 8; for apoptosis / toxicity of (Aβ)12 on single cell (fluorescence images): H19-7 cell, 33 nM (Aβ)12 plus adamantane derivative, FIG. 7
Description: as §5, with “After centrifugation at 4000 g for 30 minutes, thus obtained 56-kDa Aβ1-42 dodecamer, i.e. (Aβ)12, was concentrated (50 kDa and 100 kDa cut-off). The presence of (Aβ)12 in the concentrated sample was identified by sodium dodecyl sulfate polyacrylamide gel electrophoresis (SDS-PAGE). Its spherical structure was confirmed by atomic force microscopy.” left out
Rat hippocampal H19-7 cells were stored in DMEM containing 10% (v/v) fetal bovine serum (FBS). The cells were cultured to 80% colonies on a culture dish at low concentration in a 35° C. incubator of humidified 5% CO2 atmosphere. For fluorescence lifetime imaging microscopy (FLIM), the cells were cultured for a day after being transferred to a dish equipped with a poly-D-lysine-coated cover glass (MatTek Corporation). Before FLIM measurement, the cells were stained with 3 μM Cell Tracker Green CMFDA (Molecular Probes) solution and then incubated for 30 minutes in serum-free medium.
FLIM is a powerful tool for producing clear images of live cells. FLIM images were obtained at 40 MHz at an excitation wavelength of 467 nm (Picoquant PDL 800-B), using a band pass filter for 500-580 nm and a long pass emission filter for 473 nm (Semlock). A Nikon confocal microscope equipped with an oil-impregnated objective lens (NA 1.3) was used as a platform of an AFM scanner (PSIA). In FLIM measurement, time-correlated single photon counting is very important. […] The measurement was carried out after placing live cells on a poly-d-lysine-coated cover glass bottomed dish (MatTek Corporation) coated with and then filling serum-free medium diluted with PBS buffer.
For FLIM imaging, […] hippocampal cells (H19-7) were labeled with Cell Tracker Green having a relatively small pKa value.
In general, the degree of degeneration of neurons can be qualitatively analyzed based on the change in the aspect ratio of a single cell. The progression of neuronal death could be evaluated from the decrease in the aspect ratio.

[5] = test system: Aβ1-42; assay: In vivo test in Tg-APP/PS1 mice, ELISA of insoluble Aβ1-42; parameters: species or system Tg-APPswe/PS1dE9 mouse; details: single ICV injection of TAMA (1.274 μg), 24 hours, prefrontal cortex, 7.5-month-old mice
Description: as §1, §2, §3, §4

T1 sequence (P05067 672-713 limits assumed): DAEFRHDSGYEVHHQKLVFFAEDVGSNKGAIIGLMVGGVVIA

Row | Molecule | fEPSP slope increase with respect to the baseline ([1]; 30 nM Aβ oligomer and 200 nM TAMA, N=9) [%] | fEPSP slope increase with respect to the baseline ([1]; 200 nM TAMA without Aβ oligomer, N=4) [%] | quantity of insoluble Aβ1-40 relative to vehicle (control) group [2] [%] | change in the CD spectrum of (Aβ)12 [3] | effect of deforming the β-turn structure (rank order) [3] | aspect ratio of single live cell ([4]; after 120 minutes) | apoptosis / toxicity of (Aβ)12 on single cell (fluorescence images) [4] | quantity of insoluble Aβ1-42 relative to vehicle (control) group [5] [%] | aspect ratio of single live cell ([4]; in 60 minutes) | fEPSP slope increase with respect to the baseline ([1]; 30 nM Aβ oligomer solution only, N=9) [%]
1 | NCC12CC3(CN)CC(CN)(C1)CC(CN)(C2)C3 [TAMA, 1,3,5,7-Tetrakis(aminomethyl)adamantane] | 170.4±13.72 | 183.2±11.30 | 69.7 | negative band near 195 nm | TAMA>amantadine>memantine | no decrease in the aspect ratio | not affected by the toxicity of the oligomer at all | 87.8 |  | 
2 | NC12CC3CC(CC(C3)C1)C2 [amantadine, Amantadine] |  |  |  | broadening of the positive band from 205 nm to 215 nm | TAMA>amantadine>memantine |  |  |  |  | 
3 | CC12CC3CC(C)(C1)CC(N)(C3)C2 [memantine] |  |  |  | almost identical to that of the typical β-turn peptide | TAMA>amantadine>memantine |  | comparable to or faster than in the presence of (Aβ)12 only |  | 1.0 | 
4 | Aβ oligomer: 56-kDa Aβ1-42 dodecamer prepared from synthetic Aβ1-42 peptide; neurotoxic oligomer used as challenge |  |  |  |  |  | 1.0 |  |  |  | 124.7±5.743
